According to patent US12226449B2, “Materials and methods for the prevention of rheumatoid arthritis” (The University of Toledo, priority 2018, dated 2025):
Entries after “also recorded” stand apart in the source; their conditions may differ.

Key:
Type in all cases: cell-based
human PBMCs [1] = assay: PBMC proliferation, MTT assay; settings: for effect on 14-3-3ζ-induced PBMC proliferation: inhibitor present during 14-3-3ζ incubation, BV02 5 nM, TJU103 1 μg/ml
Description: Blood from healthy donors was collected as per the approved IRB protocol. The protocol for isolation of PBMCs was previously reported. In short, whole blood was diluted with an equal volume of RPMI before layering on Ficoll-Paque PLUS in a 15 mL tube. Tubes were then centrifuged for 25 minutes with the brakes off at 950 g. PBMCs were collected from the layer between the plasma and Ficoll liquid. PBMCs were then washed twice with RPMI, with 7 min spins at 350×g to pellet the cells. Finally, cells were resuspended in complete RPMI before counting and plating. […] Phytohemagglutinin (PHA) was used as a positive control. 10 μl MTT was added at a concentration of 5 mg/mL, and the plate was further incubated at 37° C. in the dark for 3 hours. Supernatant was then removed, and 100 μL DMSO was added for another hour before reading the absorbance at 570 nm using FLUOstar Omega microplate reader (BMG Labtech). For T cell differentiation, PBMCs were incubated with 1 μg/ml of 14-3-3ζ for 7 days followed by either the cellular staining for FACS analysis or ELISPOT as per manufacture's protocol.

human PBMCs [2] = assay: T cell polarization of PBMCs by flow cytometry (CD4, CD366, IL-17, CD8, CD69); settings: drug present during 14-3-3ζ incubation, prednisolone, prednisone, TJU103 1 μg/ml, cyclophosphamide 0.1 μg/ml, BV02 5 nM
Description: Cells were plated with 14-3-3ζ protein in a 96-well plate for 14 days at 37° C. in complete RPMI culture medium. Phytohemagglutinin (PHA) was used as a positive control. 10 μl MTT was added at a concentration of 5 mg/mL, and the plate was further incubated at 37° C. in the dark for 3 hours. Supernatant was then removed, and 100 μL DMSO was added for another hour before reading the absorbance at 570 nm using FLUOstar Omega microplate reader (BMG Labtech). For T cell differentiation, PBMCs were incubated with 1 μg/ml of 14-3-3ζ for 7 days followed by either the cellular staining for FACS analysis or ELISPOT as per manufacture's protocol. […] PBMCs incubated with 14-3-3ζ for 7 days at 37° C. were fixed in 2% paraformaldehyde for an hour, and washed with PBS. […] For surface staining, cells were stained in 50 μL PBS with 5 μl per million cells antibody for 30 minutes in the dark on ice. For intracellular staining, cells were permeabilized with Triton for 10-15 min. After staining, cells were washed with PBS and resuspended in 1 mL PBS for analysis. The following antibodies from Biolegend Inc. were used: […] Cells were sorted at FACSCanto II system (BD Biosciences) and analyzed using FlowJo software (version 10). A gate was created around an initial population of cells in the FSC-SSC plot, and this population of cells was further analyzed for CD4, CD366, and IL-17 expression. Unstained and isotype labelled cells were used as a control for setting the gates.

human PBMCs [3] = assay: ELISPOT assay of IFN-γ and IL-17 secreting cells; settings: for effect on 14-3-3ζ-induced IFN-γ secreting cells / effect on 14-3-3ζ-induced IL-17 secreting cells: drug present during 14-3-3ζ incubation
Description: Cells were plated with 14-3-3ζ protein in a 96-well plate for 14 days at 37° C. in complete RPMI culture medium. Phytohemagglutinin (PHA) was used as a positive control. 10 μl MTT was added at a concentration of 5 mg/mL, and the plate was further incubated at 37° C. in the dark for 3 hours. Supernatant was then removed, and 100 μL DMSO was added for another hour before reading the absorbance at 570 nm using FLUOstar Omega microplate reader (BMG Labtech). For T cell differentiation, PBMCs were incubated with 1 μg/ml of 14-3-3ζ for 7 days followed by either the cellular staining for FACS analysis or ELISPOT as per manufacture's protocol. For testing the effect of drugs, prednisolone, prednisone, as well as TJU103, were used at 1 μg/ml concentration and cyclophosphamide was used at 0.1 μg/ml concentration.
The protocol was adopted from Immunospot kit from Cellular Technology Limited. In short, PBMCs incubated with 14-3-3ζ for 7 days were plated on the antibody coated ELISPOT plates. About 100,000 cells/well were added and incubated for 2 days at 37° C. followed by the developing protocol. Plates were read with a Quantihub ELISPOT plate reader and manually counted.

human PBMCs [4] = assay: ELISA of secreted (accumulated) cytokines of PBMCs; settings: drug present during 14-3-3ζ incubation
human PBMCs [5] = assay: ELISPOT assay of IFN-γ and IL-17 secreting cells; settings: PBMC treated with protein for 7 d

Cc1c(N2C(=O)c3ccc(C(=O)O)cc3C2=O)c(=O)n(-c2ccccc2)n1C [BV02]
effect on PHA induced PBMC proliferation (human PBMCs [1]; BV02 present): no suppression; also recorded: did not affect
effect on 14-3-3ζ-induced PBMC proliferation (human PBMCs [1]): no effect; also recorded: did not show any difference
effect on 14-3-3ζ-induced CD366 positive CD4 cells (Th1) (human PBMCs [2]): no effect; also recorded: did not affect
effect on 14-3-3ζ-induced IL-17 positive CD4 cells (Th17) (human PBMCs [2]): no effect; also recorded: did not affect
effect on PHA induced IFN-γ secreting cells (human PBMCs [3]; BV02 present): did not affect
effect on PHA induced IL-17 secretion (human PBMCs [3]; BV02 present): partial inhibition
effect on 14-3-3ζ-induced IFN-γ secreting cells (human PBMCs [3]): did not show an increase; also recorded: significant inhibition
effect on 14-3-3ζ-induced IL-17 secreting cells (human PBMCs [3]): did not show an increase; also recorded: significant inhibition

O=P1(N(CCCl)CCCl)NCCCO1 (stereo not drawn) [cyclophosphamide]
effect on 14-3-3ζ-induced CD366 positive CD4 cells (Th1) (human PBMCs [2]): significant suppression; also recorded: mild inhibition
effect on 14-3-3ζ-induced IL-17 positive CD4 cells (Th17) (human PBMCs [2]): only milder inhibition; also recorded: no sufficient inhibition; also recorded: no effect
effect on 14-3-3ζ-induced IFN-γ secreting cells (human PBMCs [3]): mild inhibition; also recorded: impacted only IFN-γ producing cells

O=C(NN=Cc1c[nH]c2ccccc12)c1ccncc1 [TJU103]
effect on 14-3-3ζ-induced PBMC proliferation (human PBMCs [1]): did not inhibit
effect on 14-3-3ζ-induced accumulated IL-17 level (human PBMCs [4]): no difference
effect on IL-6 level (human PBMCs [4]): no difference
effect on 14-3-3ζ-induced accumulated IL-17 level (human PBMCs [4]; listed as TJU131): no significant difference
effect on 14-3-3ζ-induced CD366 positive CD4 cells (Th1) (human PBMCs [2]): suppressed
effect on 14-3-3ζ-induced IL-17 positive CD4 cells (Th17) (human PBMCs [2]): suppressed
effect on 14-3-3ζ-induced IFN-γ secreting cells (human PBMCs [3]): stronger decrease; also recorded: suppressed; also recorded: Inhibition
effect on 14-3-3ζ-induced IL-17 secreting cells (human PBMCs [3]): less sensitive to inhibition
effect on 14-3-3ζ-induced IFN-γ secreting cells (human PBMCs [3]; listed as TJU131): mild suppression
effect on 14-3-3ζ-induced IL-17 secreting cells (human PBMCs [3]; listed as TJU131): mild suppression

C[C@]12C=CC(=O)C=C1CC[C@@H]1[C@@H]2C(=O)C[C@@]2(C)[C@H]1CC[C@]2(O)C(=O)CO [prednisone]
effect on 14-3-3ζ-induced IFN-γ secreting cells (human PBMCs [3]): no effect
effect on 14-3-3ζ-induced IL-17 secreting cells (human PBMCs [3]): no effect

C[C@]12C=CC(=O)C=C1CC[C@@H]1[C@@H]2[C@@H](O)C[C@@]2(C)[C@H]1CC[C@]2(O)C(=O)CO [prednisolone]
effect on 14-3-3ζ-induced accumulated IL-17 level (human PBMCs [4]): Significant suppression; also recorded: reproduced effect on accumulated IL-17
effect on IL-6 level (human PBMCs [4]): bare minimum effect
effect on 14-3-3ζ-induced CD366 positive CD4 cells (Th1) (human PBMCs [2]): mild effect
effect on 14-3-3ζ-induced IL-17 positive CD4 cells (Th17) (human PBMCs [2]): significant suppression; also recorded: strongly inhibited
effect on 14-3-3ζ-induced CD366 positive CD4 cells (Th1) (human PBMCs [2]; listed as Prednisolone): suppressed
effect on 14-3-3ζ-induced IL-17 positive CD4 cells (Th17) (human PBMCs [2]; listed as Prednisolone): suppressed
effect on 14-3-3ζ-induced IFN-γ secreting cells (human PBMCs [3]): Significant suppression; also recorded: strong inhibition
effect on 14-3-3ζ-induced IL-17 secreting cells (human PBMCs [3]): significant suppression; also recorded: strong inhibition

B1: 14-3-3ε: another 14-3-3 isoform, used for specificity and comparison (protein, UniProt P62258 1-255, looked up)
14-3-3 protein epsilon: MDDREDLVYQAKLAEQAERYDEMVESMKKVAGMDVELTVEERNLLSVAYKNVIGARRASWRIISSIEQKEENKGGEDKLKMIREYRQMVETELKLICCDILDVLDKHLIPAANTGESKVFYYKMKGDYHRYLAEFATGNDRKEAAENSLVAYKAASDIAMTELPPTHPIRLGLALNFSVFYYEILNSPDRACRLAKAAFDDAIAELDTLSEESYKDSTLIMQLLRDNLTLWTSDMQGDGEEQNKEALQDVEDENQ
number of IFN-γ and IL-17 secreting cells (human PBMCs [5]; listed as 14-3-3e): not replaced
number of IFN-γ and IL-17 secreting cells (human PBMCs [5]; listed as 14-3-3 epsilon): no significant effect
